Test results as given in patent US20020051978A1, “Methods and compositions for the identification, assessment, prevention and therapy of human cancers” (priority 2000, published 2002).
Where two headings read alike, the source gives them in different places.

Legend:
[1] = tested on: 60 cancer cell lines (NCI 60 cancer cell line series); details: cited from earlier work
[2] = tested on: 60 cancer cell lines (NCI 60 cancer cell line series); experiment: NCI-DTP in vitro cancer screen, sulforhodamine B (SRB) growth inhibition, 48 hour exposure; assay type: cell-based, human; parameters: key to sensitivity class Ovarian OVCAR-8 CL6005 / sensitivity class Ovarian SK-OV-3 CL6011 / sensitivity class Prostate DU-145 CL11003 / sensitivity class NSCLC NCI-H522 CL1003 / sensitivity class Ovarian IGROV1 CL6010 / sensitivity class Ovarian OVCAR-4 CL6002 / sensitivity class Prostate PC-3(I) CL11001 / sensitivity class Renal A498 CL9013 / sensitivity class Renal SN12C CL9008: sensitivity class: 1 = Low, 2 = Medium, 3 = High
Procedure, shortened: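 Values come from the NCI-DTP screen database: -log GI50, the concentration giving 50% growth inhibition, derived from SRB cell-mass dose-response curves. Each line seeded at its own density, treated day 1 at five ten-fold-spaced doses in duplicate wells, stained after 48 h.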

In the case of `COc1cccc2c1C(=O)c1c(O)c3c(c(O)c1C2=O)C[C@@](O)(C(=O)CO)C[C@@H]3O[C@H]1C[C@H](N)[C@H](O)[C@H](C)O1` [Adriamycin], the “-Log (GI50)” value ([1]; Breast BT-549 (CL5013)) is listed as 6.5, the “-Log (GI50)” value ([1]; Breast HS-578T CL5006) is listed as 6.7 and the “-Log (GI50)” value ([1]; Breast MCF7(I) (CL5001)) is listed as 7.8. The “-Log (GI50)” value ([1]; Breast MCF7/ADRr (CL5002)) was 4.8, the “-Log (GI50)” value ([1]; Breast MDA-MB-231 CL5005) was 6.4 and the “-Log (GI50)” value ([1]; Breast MDA-MB-435 (CL5011)) was 6.5. For the same molecule, the “-Log (GI50)” value ([1]; Breast MDA-N CL5012) was 6.5, the “-Log (GI50)” value ([1]; Breast T-47D (CL5014)) was 7.0 and the “-Log (GI50)” value ([1]; CNS SF-268 CL12014) was 7.0. For the same molecule, the “-Log (GI50)” value ([1]; CNS SF-295 CL12015) was 7.0, the “-Log (GI50)” value ([1]; CNS SF-539 CL12016) was 7.2 and the “-Log (GI50)” value ([1]; CNS SNB-19 (CL12002)) was 7.3. For the same molecule, the “-Log (GI50)” value ([1]; CNS SNB-75(I) CL12005) was 7.0, the “-Log (GI50)” value ([1]; CNS U251(I) CL12009) was 7.3 and the “-Log (GI50)” value ([1]; Colon COLO-250 CL4010) was 6.7. The “-Log (GI50)” value ([1]; Colon HCC-2998 (CL4002)) was 6.7, the “-Log (GI50)” value ([1]; Colon HCT-15 CL4015) was 5.9 and the “-Log (GI50)” value ([1]; Colon HCT-116 (CL4003)) was 7.1. For the same molecule, the “-Log (GI50)” value ([1]; Colon HT29(I) CL4001) was 6.7, the “-Log (GI50)” value ([1]; Colon KM12 (CL4017)) was 6.5 and the “-Log (GI50)” value ([1]; Colon SW-620 (CL4009)) was 7.1. The “-Log (GI50)” value ([1]; Leukemia CCRF-CEM(I) (CL7003)) was 7.5, the “-Log (GI50)” value ([1]; Leukemia HL-60(I) (CL7008)) was 7.3 and the “-Log (GI50)” value ([1]; Leukemia K562(I) CL7005) was 7.0. For the same molecule, the “-Log (GI50)” value ([1]; Leukemia MOLT-4 (CL7006)) was 8.0, the “-Log (GI50)” value ([1]; Leukemia RPMI-8226(I) (CL7010)) was 7.3 and the “-Log (GI50)” value ([1]; Leukemia SR CL7019) was 7.8. For the same molecule, the “-Log (GI50)” value ([1]; Melanoma LOX IMVI CL10001) was 7.3, the “-Log (GI50)” value ([1]; Melanoma M14 (CL10014)) was 6.6 and the “-Log (GI50)” value ([1]; Melanoma MALME-3M CL10002) was 7.1. For the same molecule, the “-Log (GI50)” value ([1]; NCSLC NCI-H522 CL1003) was 7.2, the “-Log (GI50)” value ([1]; NSCLC NCI-H23(I) CL1001) was 6.9 and the “-Log (GI50)” value ([1]; NSCLC NCI-H332M CL1017) was 6.3. For the same molecule, the “-Log (GI50)” value ([1]; NSCLC NCI-H460 CL1021) was 8.2, the “-Log (GI50)” value ([1]; Ovarian IGROV1 CL6010) was 6.9 and the “-Log (GI50)” value ([1]; Ovarian OVCAR-3 CL6001) was 6.3. For the same molecule, the “-Log (GI50)” value ([1]; Ovarian OVCAR-4 CL6002) was 6.1, the “-Log (GI50)” value ([1]; Ovarian OVCAR-5 CL6003) was 6.2 and the “-Log (GI50)” value ([1]; Ovarian OVCAR-8 CL6005) was 6.8. The “-Log (GI50)” value ([1]; Ovarian SK-OV-3 CL6011) was 6.5, the “-Log (GI50)” value ([1]; Prostate DU-145 CL11003) was 6.8 and the “-Log (GI50)” value ([1]; Prostate PC-3(I) CL11001) was 6.6. For the same molecule, the “-Log (GI50)” value ([1]; Renal 786-O CL9018) was 7.3, the “-Log (GI50)” value ([1]; Renal A498 CL9013) was 6.9 and the “-Log (GI50)” value ([1]; Renal ACHN CL9023) was 7.2. For the same molecule, the “-Log (GI50)” value ([1]; Renal CAKI-1 CL9015) was 6.8, the “-Log (GI50)” value ([1]; Renal RXF-393 CL9016) was 6.7 and the “-Log (GI50)” value ([1]; Renal SN12C CL9008) was 7.0. The “-Log (GI50)” value ([1]; Renal TK10 CL9024) was 6.3, the “-Log (GI50)” value ([1]; Renal UO-31 CL9004) was 6.1 and the “classification of cell line as Low(1), Medium(2) or High(3) sensitivity to compound” value (“classification of cell line” below) ([2]; CNS SF-539 CL12016) was 2. For the same molecule, the “classification of cell line” value ([2]; CNS SNB-19 (CL12002)) was 2, the “classification of cell line” value ([2]; CNS SNB-75(I) CL12005) was 2 and the “classification of cell line” value ([2]; CNS U251(I) CL12009) was 2. For the same molecule, the “classification of cell line” value ([2]; Colon COLO-250 CL4010) was 2, the “classification of cell line” value ([2]; Colon HCC-2998 (CL4002)) was 2 and the “classification of cell line” value ([2]; Colon HCT-15 CL4015) was 1. For the same molecule, the “classification of cell line” value ([2]; Colon HCT-116 (CL4003)) was 2, the “classification of cell line” value ([2]; Colon HT29(I) CL4001) was 2 and the “classification of cell line” value ([2]; Colon KM12 (CL4017)) was 2. For the same molecule, the “classification of cell line” value ([2]; Colon SW-620 (CL4009)) was 2, the “classification of cell line” value ([2]; Leukemia CCRF-CEM(I) (CL7003)) was 3 and the “classification of cell line” value ([2]; Leukemia HL-60(I) (CL7008)) was 2. For the same molecule, the “classification of cell line” value ([2]; Leukemia K562(I) CL7005) was 2, the “classification of cell line” value ([2]; Leukemia MOLT-4 (CL7006)) was 3 and the “classification of cell line” value ([2]; Leukemia RPMI-8226(I) (CL7010)) was 2. For the same molecule, the “classification of cell line” value ([2]; Leukemia SR CL7019) was 3, the “classification of cell line” value ([2]; Melanoma LOX IMVI CL10001) was 2 and the “classification of cell line” value ([2]; Melanoma M14 (CL10014)) was 2. The “classification of cell line” value ([2]; Melanoma MALME-3M CL10002) was 2, the “sensitivity class NSCLC NCI-H23(I) CL1001” value ([2]; cell line NSCLC NCI-H23(I), CL1001) was 2 and the “sensitivity class NSCLC NCI-H332M CL1017” value ([2]; cell line NSCLC NCI-H332M, CL1017) was 1. For the same molecule, the “sensitivity class NSCLC NCI-H460 CL1021” value ([2]; cell line NSCLC NCI-H460, CL1021) was 3, the “sensitivity class NSCLC NCI-H522 CL1003” value ([2]; cell line NSCLC NCI-H522, CL1003) was 2 and the “sensitivity class Ovarian IGROV1 CL6010” value ([2]; cell line Ovarian IGROV1, CL6010) was 2. The “sensitivity class Ovarian OVCAR-3 CL6001” value ([2]; cell line Ovarian OVCAR-3, CL6001) was 2, the “sensitivity class Ovarian OVCAR-4 CL6002” value ([2]; cell line Ovarian OVCAR-4, CL6002) was 1 and the “sensitivity class Ovarian OVCAR-5 CL6003” value ([2]; cell line Ovarian OVCAR-5, CL6003) was 1. The “sensitivity class Ovarian OVCAR-8 CL6005” value ([2]; cell line Ovarian OVCAR-8, CL6005) was 2, the “sensitivity class Ovarian SK-OV-3 CL6011” value ([2]; cell line Ovarian SK-OV-3, CL6011) was 2 and the “sensitivity class Prostate DU-145 CL11003” value ([2]; cell line Prostate DU-145, CL11003) was 2. For the same molecule, the “sensitivity class Prostate PC-3(I) CL11001” value ([2]; cell line Prostate PC-3(I), CL11001) was 2, the “sensitivity class Renal 786-O CL9018” value ([2]; cell line Renal 786-O, CL9018) was 2 and the “sensitivity class Renal A498 CL9013” value ([2]; cell line Renal A498, CL9013) was 2. The “sensitivity class Renal ACHN CL9023” value ([2]; cell line Renal ACHN, CL9023) was 2, the “sensitivity class Renal CAKI-1 CL9015” value ([2]; cell line Renal CAKI-1, CL9015) was 2 and the “sensitivity class Renal RXF-393 CL9016” value ([2]; cell line Renal RXF-393, CL9016) was 2. For the same molecule, the “sensitivity class Renal SN12C CL9008” value ([2]; cell line Renal SN12C, CL9008) was 2, the “sensitivity class Renal TK10 CL9024” value ([2]; cell line Renal TK10, CL9024) was 2 and the “sensitivity class Renal UO-31 CL9004” value ([2]; cell line Renal UO-31, CL9004) was 1.
